Converted amounts (≈) assume the structure as drawn.
Assays:
Experiment in all cases: MIC by agar plate dilution method on standard strains (Example 3)
Assay type in all cases: cell-based
Conditions in all cases: read-out: MIC
[1] = system: Staphylococcus epidermidis ATCC29886
Protocol: (§1) Minimum growth-inhibiting concentrations of trifluoromethionine and other antibacterial drugs on standard strains were determined by an agar plate dilution method according to the standard method of Japanese Society of Chemotherapy.
(§2) Drug solutions at a concentration 10 times as high as the maximum applicable concentration were prepared as original solutions of test drugs given in Table 2 (as to solvents used for this purpose, reference should be made also to Table 2). Serial two-fold dilution series of the original solutions were prepared at desired stages, and 1 ml each of the diluted drug solutions was added to 9 ml of media given in Table 3 to prepare drug plates. Concentration range of the individual drugs used are as follows: trifluoromethionine: 400-0.025 μg/ml (15 stages), tetracycline: 100-0.025 μg/ml (13 stages), and clarithromycin: 100-0.025 μg/ml (13 stages).
(§3) • 1) Bacterial solutions stocked at −80° C. were inoculated on agar media (as to media used, reference should be made to Table 3), and then incubated at 37° C. overnight. When desired, subculturing was conducted once more on the same agar media (by overnight incubation at 37° C.). • 2) Colonies growing on the agar media were sampled by a platinum loop, suspended in liquid media (reference should be made to Table 3) and statically incubated at 37° C. for 18 hours (preculturing). • 3) Preculturing was continued up to McFarland 0.5 (McFarland 0.5=about 10^8 CFU/ml), and then the culture broths were diluted with Muellar Hinton Broth to make 10^6 CFU/ml. 5 μl each of the diluted solutions were inoculated on the above-mentioned drug plates by an inoculator Microplanter.
(§4) Thus, bacterial solutions at about 10^8 CFU/ml can be easily prepared by use of McFarland 0.5. Bacterial solutions at such a turbidity are commercially available, but can be easily prepared. McFarland 0.5 can be obtained by adding 0.5 ml of an aqueous 0.048 mol/l barium chloride solution to 99.5 ml of 1% v/v (0.18 mol/l) sulfuric acid. • 4) The individual bacteria were incubated at 37° C. for 18-20 hours and then the growth was determined in the same manner as in Example 2 to obtain minimum growth-inhibiting concentrations.

[2] = system: Staphylococcus epidermidis ATCC12228
Protocol: as §1, §2, §3, §4

[3] = system: Enterococcus faecalis ATCC29247
Protocol: as §3, with “Drug solutions at a concentration 10 times as high as the maximum applicable concentration were prepared as original solutions of test drugs given in Table 2 (as to solvents used for this purpose, reference should be made also to Table 2). Serial two-fold dilution series of the original solutions were prepared at desired stages, and 1 ml each of the diluted drug solutions was added to 9 ml of media given in Table 3 to prepare drug plates. […] • 1)” for “• 1)”, “inoculator Microplanter. […] Thus, bacterial solutions at about 10^8 CFU/ml can be easily prepared by use of McFarland 0.5. Bacterial solutions at such a turbidity are commercially available, but can be easily prepared.” for “inoculator Microplanter.”

[4] = system: Streptococcus pneumoniae ATCC6301
Protocol: as §3, with “Drug solutions at a concentration 10 times as high as the maximum applicable concentration were prepared as original solutions of test drugs given in Table 2 (as to solvents used for this purpose, reference should be made also to Table 2). Serial two-fold dilution series of the original solutions were prepared at desired stages, and 1 ml each of the diluted drug solutions was added to 9 ml of media given in Table 3 to prepare drug plates. […] • 1)” for “• 1)”, “inoculator Microplanter. […] Thus, bacterial solutions at about 10^8 CFU/ml can be easily prepared by use of McFarland 0.5. Bacterial solutions at such a turbidity are commercially available, but can be easily prepared.” for “inoculator Microplanter.”

[5] = system: Haemophilus influenzae ATCC33533
Protocol: as §3, with “Drug solutions at a concentration 10 times as high as the maximum applicable concentration were prepared as original solutions of test drugs given in Table 2 (as to solvents used for this purpose, reference should be made also to Table 2). Serial two-fold dilution series of the original solutions were prepared at desired stages, and 1 ml each of the diluted drug solutions was added to 9 ml of media given in Table 3 to prepare drug plates. […] • 1)” for “• 1)”, “inoculator Microplanter. […] Thus, bacterial solutions at about 10^8 CFU/ml can be easily prepared by use of McFarland 0.5. Bacterial solutions at such a turbidity are commercially available, but can be easily prepared.” for “inoculator Microplanter.”

[6] = system: Streptococcus pyogenes ATCC12353
Protocol: as §3, with “Drug solutions at a concentration 10 times as high as the maximum applicable concentration were prepared as original solutions of test drugs given in Table 2 (as to solvents used for this purpose, reference should be made also to Table 2). Serial two-fold dilution series of the original solutions were prepared at desired stages, and 1 ml each of the diluted drug solutions was added to 9 ml of media given in Table 3 to prepare drug plates. […] • 1)” for “• 1)”, “inoculator Microplanter. […] Thus, bacterial solutions at about 10^8 CFU/ml can be easily prepared by use of McFarland 0.5. Bacterial solutions at such a turbidity are commercially available, but can be easily prepared.” for “inoculator Microplanter.”

[7] = system: Serratia marcescens ATCC13880
Protocol: as §3, with “Drug solutions at a concentration 10 times as high as the maximum applicable concentration were prepared as original solutions of test drugs given in Table 2 (as to solvents used for this purpose, reference should be made also to Table 2). Serial two-fold dilution series of the original solutions were prepared at desired stages, and 1 ml each of the diluted drug solutions was added to 9 ml of media given in Table 3 to prepare drug plates. […] • 1)” for “• 1)”, “inoculator Microplanter. […] Thus, bacterial solutions at about 10^8 CFU/ml can be easily prepared by use of McFarland 0.5. Bacterial solutions at such a turbidity are commercially available, but can be easily prepared.” for “inoculator Microplanter.”

[8] = system: Streptococcus pneumoniae ATCC6306
Protocol: as §3, with “Drug solutions at a concentration 10 times as high as the maximum applicable concentration were prepared as original solutions of test drugs given in Table 2 (as to solvents used for this purpose, reference should be made also to Table 2). Serial two-fold dilution series of the original solutions were prepared at desired stages, and 1 ml each of the diluted drug solutions was added to 9 ml of media given in Table 3 to prepare drug plates. […] • 1)” for “• 1)”, “inoculator Microplanter. […] Thus, bacterial solutions at about 10^8 CFU/ml can be easily prepared by use of McFarland 0.5. Bacterial solutions at such a turbidity are commercially available, but can be easily prepared.” for “inoculator Microplanter.”

[9] = system: Haemophilus influenzae ATCC33391
Protocol: as §3, with “Drug solutions at a concentration 10 times as high as the maximum applicable concentration were prepared as original solutions of test drugs given in Table 2 (as to solvents used for this purpose, reference should be made also to Table 2). Serial two-fold dilution series of the original solutions were prepared at desired stages, and 1 ml each of the diluted drug solutions was added to 9 ml of media given in Table 3 to prepare drug plates. […] • 1)” for “• 1)”, “inoculator Microplanter. […] Thus, bacterial solutions at about 10^8 CFU/ml can be easily prepared by use of McFarland 0.5. Bacterial solutions at such a turbidity are commercially available, but can be easily prepared.” for “inoculator Microplanter.”

[10] = system: Bacillus subtilis ATCC6633
Protocol: as §3, with “Drug solutions at a concentration 10 times as high as the maximum applicable concentration were prepared as original solutions of test drugs given in Table 2 (as to solvents used for this purpose, reference should be made also to Table 2). Serial two-fold dilution series of the original solutions were prepared at desired stages, and 1 ml each of the diluted drug solutions was added to 9 ml of media given in Table 3 to prepare drug plates. […] • 1)” for “• 1)”, “inoculator Microplanter. […] Thus, bacterial solutions at about 10^8 CFU/ml can be easily prepared by use of McFarland 0.5. Bacterial solutions at such a turbidity are commercially available, but can be easily prepared.” for “inoculator Microplanter.”

[11] = system: Moraxella (Branhamella) catarrhalis ATCC25238
Protocol: as §3, with “Drug solutions at a concentration 10 times as high as the maximum applicable concentration were prepared as original solutions of test drugs given in Table 2 (as to solvents used for this purpose, reference should be made also to Table 2). Serial two-fold dilution series of the original solutions were prepared at desired stages, and 1 ml each of the diluted drug solutions was added to 9 ml of media given in Table 3 to prepare drug plates. […] • 1)” for “• 1)”, “inoculator Microplanter. […] Thus, bacterial solutions at about 10^8 CFU/ml can be easily prepared by use of McFarland 0.5. Bacterial solutions at such a turbidity are commercially available, but can be easily prepared.” for “inoculator Microplanter.”

[12] = system: Haemophilus influenzae ATCC49247
Protocol: as §3, with “Drug solutions at a concentration 10 times as high as the maximum applicable concentration were prepared as original solutions of test drugs given in Table 2 (as to solvents used for this purpose, reference should be made also to Table 2). Serial two-fold dilution series of the original solutions were prepared at desired stages, and 1 ml each of the diluted drug solutions was added to 9 ml of media given in Table 3 to prepare drug plates. […] • 1)” for “• 1)”, “inoculator Microplanter. […] Thus, bacterial solutions at about 10^8 CFU/ml can be easily prepared by use of McFarland 0.5. Bacterial solutions at such a turbidity are commercially available, but can be easily prepared.” for “inoculator Microplanter.”

[13] = system: Escherichia coli ATCC25922
Protocol: as §3, with “Drug solutions at a concentration 10 times as high as the maximum applicable concentration were prepared as original solutions of test drugs given in Table 2 (as to solvents used for this purpose, reference should be made also to Table 2). Serial two-fold dilution series of the original solutions were prepared at desired stages, and 1 ml each of the diluted drug solutions was added to 9 ml of media given in Table 3 to prepare drug plates. […] • 1)” for “• 1)”, “inoculator Microplanter. […] Thus, bacterial solutions at about 10^8 CFU/ml can be easily prepared by use of McFarland 0.5. Bacterial solutions at such a turbidity are commercially available, but can be easily prepared.” for “inoculator Microplanter.”

[14] = system: Moraxella (Branhamella) catarrhalis ATCC25240
Protocol: as §3, with “Drug solutions at a concentration 10 times as high as the maximum applicable concentration were prepared as original solutions of test drugs given in Table 2 (as to solvents used for this purpose, reference should be made also to Table 2). Serial two-fold dilution series of the original solutions were prepared at desired stages, and 1 ml each of the diluted drug solutions was added to 9 ml of media given in Table 3 to prepare drug plates. […] • 1)” for “• 1)”, “inoculator Microplanter. […] Thus, bacterial solutions at about 10^8 CFU/ml can be easily prepared by use of McFarland 0.5. Bacterial solutions at such a turbidity are commercially available, but can be easily prepared.” for “inoculator Microplanter.”

MIC [1]: 0.39 µg/mL (≈ 0.521 µM)
MIC [2]: 0.2 µg/mL (≈ 0.267 µM)
MIC [3]: 1.56 µg/mL (≈ 2.09 µM)
MIC [4]: 0.05 µg/mL (≈ 0.0668 µM)
MIC [5]: 3.13 µg/mL (≈ 4.18 µM)
MIC [6]: 0.1 µg/mL (≈ 0.134 µM)
MIC [7]: > 100 µg/mL
MIC [8]: 0.1 µg/mL (≈ 0.134 µM)
MIC [9]: 6.25 µg/mL (≈ 8.36 µM)
MIC [10]: 0.1 µg/mL (≈ 0.134 µM)
MIC [11]: 0.1 µg/mL (≈ 0.134 µM)
MIC [12]: 6.25 µg/mL (≈ 8.36 µM)
MIC [13]: 50 µg/mL (≈ 66.8 µM)
MIC [14]: 0.2 µg/mL (≈ 0.267 µM)
Structure (SMILES): CC[C@H]1OC(=O)[C@H](C)[C@@H](O[C@H]2C[C@@](C)(OC)[C@@H](O)[C@H](C)O2)[C@H](C)[C@@H](O[C@@H]2O[C@H](C)C[C@H](N(C)C)[C@H]2O)[C@](C)(OC)C[C@@H](C)C(=O)[C@H](C)[C@@H](O)[C@]1(C)O [CAM, Clarithromycin]

— patent US20050175550A1, “Compositions for oral use” (priority 2000, published 2005)
